“And” between values parts separate entries of the source, which are not always exact repeats. Identical values can stand only once. “Also recorded” adds a separate entry of the source. Like-named read-outs stand apart in the source and are kept apart here.
Key:
Format in all cases: physicochemical
[1] = Emission (fluorescence) spectrum and fluorescence quantum yield of material-containing resin film (Quantaurus-QY C11347)
[2] = Eluting test of the material from the material-containing film (ISO10993-10 Annex E, methanol extraction)
Protocol: In Example 1, the operation was performed in the same manner as in Example 1 except that 100 mg of the near infrared fluorescent material A was used, a material-containing TPU film having a thickness of about 300 μm and having a material concentration of the near infrared fluorescent material A of 0.1% by mass was prepared.
An Eluting test of the obtained material-containing TPU film was performed. The eluting operation of the film was performed as follows according to ISO10993-10AnnexE. 5 g of the material-containing TPU film was cut into a size of 2 cm×2 cm, and then was put into a 300 mL conical flask with 100 mL of methanol, followed by shaking at 25° C. of room temperature for 8 hours. Next, the methanol was separated by filtration once, and the resultant product was extracted two times with the same amount of methanol by using the same film fine piece. The methanol extracted liquid obtained by the total three times of operations was concentrated by an evaporator, and the residues were melted with 5 mL of dichloromethane to obtain a test liquid.
The absorption spectrum and the light emission spectrum of the obtained test liquid were measured. As a result, the absorption and the fluorescent derived from the near infrared fluorescent material A could not be confirmed. […] Since the near infrared fluorescent material A was hardly eluted, a medical implant having high safeness which is molded using the resin composition according to the present invention was obtained.

[3] = Absorption spectrum of material-containing resin film (spectrophotometer UV3600)
Protocol: TPU pellets (Tecoflex EG85A, manufactured by Lubrizol Corp.) (100 g) and a near infrared fluorescent material A (5 mg) synthesized in Preparation Example 1 were mixed, and the mixture was attached to the pellet surfaces.
Next, the pellets were put into Labo Plastomill, and melt-kneaded (kneading) at a set temperature of 190° C. for 10 minutes. Thereafter, the kneaded material-containing resin was taken out, and made to be a film.
The film was obtained in the following manner. First, the material-containing resin was heated for 5 minutes while being sandwiched between iron plates heated to 200° C., and pressed at […] while the steel plates were cooled. […]

[4] = as above; settings: PP film, material 10 mg per 100 g PP (Example 2)
[5] = PP film, material 10 mg per 100 g PP (Example 2)
[6] = TPU film, material 5 mg per 100 g TPU (0.005% by mass), melt-kneaded at 190° C.
[7] = TPU film, material 0.1% by mass, about 300 μm, methanol, 25° C., 8 hours, three extractions
[8] = methanol extract of TPU film, residues in dichloromethane

Presence or absence of material elution [2, 7] | Structure (SMILES) | Fluorescence peak [1] | Quantum yield [1] | Presence or absence of material elution [2] | Absorption peak [3] | further results
 | CCCCCCCCOc1ccc(-c2c3c4n(c(-c5ccc(OCCCCCCCC)cc5)c3c3n2[B-](F)(F)[n+]2c(sc5cc(C(C)(C)C)ccc52)C=3C#N)[B-](F)(F)[n+]2c(sc3cc(C(C)(C)C)ccc32)C=4C#N)cc1 [near infrared fluorescent material B] | 758 nm and 833 nm and 756 nm and 834 nm and 753 nm and 754 am nm and 751 nm and 825 nm | 36% and 34% and 39% and 46% | not eluted; also recorded: Absence | 739 nm and 738 nm and 737 nm and 736 nm | 
 | CCCCCCCCOc1ccc(-c2c3c4n(c(-c5ccc(OCCCCCCCC)cc5)c3c3n2[B-](F)(F)[n+]2c(ccc5cc(C(C)(C)C)ccc52)C=3C#N)[B-](F)(F)[n+]2c(ccc3cc(C(C)(C)C)ccc32)C=4C#N)cc1 [near infrared fluorescent material F] | 774 nm and 870 nm | 35% | not eluted; also recorded: Absence | 764 nm and 767 nm | 
 | CCCCCCCCOc1ccc(-c2c3c4n(c(-c5ccc(OCCCCCCCC)cc5)c3c3n2[B-](c2ccccc2)(c2ccccc2)[n+]2c(C)cc(C)nc2C=3C#N)[B-](c2ccccc2)(c2ccccc2)[n+]2c(C)cc(C)nc2C=4C#N)cc1 [near infrared fluorescent material G] | 778 nm and 870 nm | 35% | not eluted; also recorded: Absence | 756 nm | 
 | CCCCC(CC)COc1ccc(-c2c3c4n(c(-c5ccc(OCC(CC)CCCC)cc5)c3c3n2[B-](c2ccccc2)(c2ccccc2)[n+]2c(oc5ccc(C(C)(C)C)cc52)C=3C#N)[B-](c2ccccc2)(c2ccccc2)[n+]2c(oc3ccc(C(C)(C)C)cc32)C=4C#N)cc1 (stereo not shown) [near infrared fluorescent material H] | 787 nm and 865 nm | 36% | not eluted; also recorded: Absence | 744 nm | 
 | COc1ccc(-c2cc3c(s2)=CC2=C(C(F)(F)F)c4cc5sc(-c6ccc(OC)cc6)cc5n4[B-](F)(F)[N+]=32)cc1 [near infrared fluorescent material D] | 765 nm | 17% | not eluted; also recorded: Absence | 737 nm | 
hardly eluted; also recorded: Absence | COc1ccc(-c2cc3c(o2)=CC2=C(C(F)(F)F)c4cc5oc(-c6ccc(OC)cc6)cc5n4[B-](F)(F)[N+]=32)cc1 [near infrared fluorescent material A] |  |  |  |  | Fluorescence peak [1, 5]: 810 nm; Quantum yield [1, 5]: 24%; Quantum yield [1, 6]: 26%; Absorption peak [3, 6]: 730 nm; Absorption peak [4]: 730 nm
not eluted; also recorded: Absence | F[B-]1(F)n2c(cc3sc(-c4cccs4)cc32)C(C(F)(F)F)=C2C=c3sc(-c4cccs4)cc3=[N+]21 [near infrared fluorescent material E] |  |  |  |  | Fluorescence peak [1, 6]: 772 nm; Quantum yield [1, 6]: 11%; Absorption peak [3, 6]: 741 nm
eluted; also recorded: Presence | CCN1/C(=C\C=C2/CCC(/C=C/c3sc4ccc(Cl)cc4[n+]3CC)=C2N(c2ccccc2)c2ccccc2)Sc2ccc(Cl)cc21 [IR-140, reference compound] |  |  |  |  | Presence or absence of material elution ([2]; TPU film, material 0.1% by mass, about 300 μm, methanol, 25° C., 8 hours, three extractions, listed as Comparative Example 1): elutes; light emission peak wavelength of the fluorescence spectrum in the test liquid of the eluting test [2, 8]: 846 nm; peak wavelength of the absorption spectrum in the test liquid of the eluting test [2, 8]: 812 nm

Reference: patent US20210030895A1, “RESIN COMPOSITION AND MOLDED ARTICLE” (DIC Corporation, priority 2013, published 2021)
